Results published in publication PMC9618103, “Exploratory toxicology studies of 2,3-substituted imidazo[1,2-a]pyridines with antiparasitic and anti-inflammatory properties” (Toxicology Research, 2022).

Experiments:
[1] = tested on: NIH mice; assay: Acute oral toxicity, median lethal dose (LD50); format: in vivo; settings: for Category (GHS acute oral toxicity hazard category) / Hazard statement (GHS): based on oral LD50, according to GHS [39]; for Oral LD50: female NIH mice, single oral dose, 14 days observation
Protocol: All treatments were administrated orally (p.o.) according to the scheme mentioned below.
Acute toxicity tests were performed in order to measure the median lethal dose (LD50). After acclimatization, mice were randomly allocated to ten groups (n = 4), including the control group (e.g. water, Tween 80, or PO) and the experimental groups, each with a single dose of one of the IMPYs at 4 levels of dose (0.5, 1.0, 2.0, and 4.0 g/kg b.w.).
Animals were food deprived overnight prior to administration of the chemical compounds or vehicles, and food was returned 4 h after dosing. Animals had access to water ad libitum throughout the study.[27]^,[28]

[2] = tested on: Wistar rats; assay: Subacute toxicity: serum and urine glucose, urinary protein excretion; format: in vivo; settings: for Filtered Load of Glucose / Fractional Excretion of Glucose / Serum Glucose / Urinary Glucose Excretion / Urinary Protein Excretion: rats, p.o., 14 days at 10% of LD50 (CCl4, APAP: once daily, 3 days), mean ± SEM, n = 6
[3] = tested on: Wistar rats; assay: Subacute toxicity: glomerular filtration rate (creatinine clearance) and serum creatinine; format: in vivo; settings: for Glomerular Filtration Rate / Serum Creatinine: rats, p.o., 14 days at 10% of LD50 (CCl4, APAP: once daily, 3 days), mean ± SEM, n = 6
[4] = tested on: Wistar rats; assay: Subacute toxicity: water and electrolyte balance (osmolality, sodium, potassium, urinary flow); format: in vivo; settings: for Filtered Load of Potassium / Filtered Load of Sodium / Fractional Excretion of Potassium / Fractional Excretion of Sodium / Serum Osmolality / Serum Potassium / Serum Sodium / U/S Osm ratio / Urinary Flow Rate / Urinary Potassium Excretion / Urinary Sodium Excretion: rats, p.o., 14 days at 10% of LD50 (CCl4, APAP: once daily, 3 days), mean ± SEM, n = 6
[5] = tested on: Wistar rats; assay: Subacute toxicity: serum alanine aminotransferase and alkaline phosphatase activity; format: in vivo; settings: for Alanine Aminotransferase / Alkaline Phosphatase: serum, rats, p.o., 14 days at 10% of LD50 (CCl4, APAP: once daily, 3 days), mean ± SEM, n = 6
[6] = tested on: renal secretory pathway of organic anions; assay: Active tubular secretion of organic acids (PAH uptake in kidney cortex slices); format: in vivo, rats; settings: kidney cortex slices, PAH 1 mM, 1 h, 25 °C; rats, p.o., 14 days at 10% of LD50 (CCl4, APAP: once daily, 3 days); mean ± SEM, n = 6
[7] = tested on: Wistar rats; assay: Hepatic and renal lipid peroxidation (lipid-soluble fluorescence); format: in vivo; settings: for Renal Lipoperoxidation: kidney; for Renal Lipoperoxidation / Hepatic Lipoperoxidation: rats, p.o., 14 days at 10% of LD50 (CCl4, APAP: once daily, 3 days), mean ± SEM, n = 6; for Hepatic Lipoperoxidation: liver
[8] = tested on: Wistar rats; assay: Hepatic and renal reactive oxygen species (DCF formation); format: in vivo; settings: rats, p.o., 14 days at 10% of LD50 (CCl4, APAP: once daily, 3 days), mean ± SEM, n = 6; for Renal ROS: kidney; for Hepatic ROS: liver
[9] = in comparison to the control group
[10] = in comparison with the control group

| SMILES | Category (GHS acute oral toxicity hazard category) [1] | Hazard statement (GHS) [1] | Oral LD50 [1] [g/kg b.w.] | Filtered Load of Glucose [2] [mg/min] | Fractional Excretion of Glucose [2] | Serum Glucose [2] [mg/dL] | Urinary Glucose Excretion [2] [ng/min] | Urinary Protein Excretion [2] [µg/min] | Glomerular Filtration Rate [3] [mL/min] | Serum Creatinine [3] [mg/dL] | Filtered Load of Potassium [4] [µEq/min] | Filtered Load of Sodium [4] [µEq/min] | Fractional Excretion of Potassium [4] [%] | Fractional Excretion of Sodium [4] [%] | Serum Osmolality [4] [mOsm/kg] | Serum Potassium [4] [mEq/L] | Serum Sodium [4] [mEq/L] | U/S Osm ratio [4] | Urinary Flow Rate [4] [µL/min] | Urinary Potassium Excretion [4] [µEq/min] | further results |
| --- | --- | --- | --- | --- | --- | --- | --- | --- | --- | --- | --- | --- | --- | --- | --- | --- | --- | --- | --- | --- | --- |
| CCOC(=O)c1nc2ccccn2c1[N+](=O)[O-] [Compound 1b, ethyl 3-nitroimidazo[1,2-a]pyridine-2-carboxylate] | 5 | May be harmful if swallowed | >4.000 | 0.31 ± 0.04 | 0.05 ± 3.9 E-3% | 121.27 ± 7.88 | 141.87 ± 18.46 | 0.57 ± 0.07 | 0.25 ± 0.03 | 1.38 ± 0.07 | 1.70 ± 0.21 | 39.31 ± 4.28 | 15.58 ± 3.10 | 0.85 ± 0.09 | 294.04 ± 0.88 | 6.74 ± 0.39 | 155.42 ± 3.63 | 2.54 ± 0.20 | 4.54 ± 0.76 | 0.24 ± 0.03 | FEG (fractional excretion of glucose), change in words ([2]; compared to control values): increased; FLG (filtered load of glucose), change in words ([2]; compared to control values): reduced; serum creatinine, change in words ([3]; compared with 1a and 3b): higher; GFR, change in words [3, 9]: lower; serum creatinine level, change in words [3, 9]: greater; FLS (filtered load of sodium), change in words [4, 10]: decreased; Urinary Sodium Excretion [4]: 0.34 ± 0.05 µEq/min; Alanine Aminotransferase [5]: 30.10 ± 2.99 U/L; Alkaline Phosphatase [5]: 101.41 ± 16.30 U/L; PAH t/m ratio [6]: 2.00 ± 0.13; Renal Lipoperoxidation [7]: 0.38 ± 0.07 URF/mg protein; Hepatic Lipoperoxidation [7]: 0.74 ± 0.07 URF/mg protein; Renal ROS [8]: 227.17 ± 21.01 nM de DCF/mg protein/h; Hepatic ROS [8]: 285.90 ± 37.33 nM de DCF/mg protein/h |
| N#Cc1nc2ccccn2c1[N+](=O)[O-] [Compound 2b, 3-nitroimidazo[1,2-a]pyridine-2-carbonitrile] | 4 | Harmful if swallowed | 1.606 | 2.29 ± 0.33 | 0.01 ± 1.8E-3% | 126.47 ± 5.03 | 109.06 ± 24.61 | 0.86 ± 0.20 | 1.81 ± 0.26 | 0.56 ± 0.08 | 10.21 ± 1.12 | 267.24 ± 51.35 | 13.47 ± 1.95 | 0.88 ± 0.29 | 288.93 ± 1.51 | 5.79 ± 0.31 | 141.65 ± 15.47 | 3.44 ± 0.10 | 8.29 ± 1.67 | 1.38 ± 0.21 | FLG (filtered load of glucose), change in words ([2]; versus 2a): increased; urinary sodium excretion (USE), change in words ([4]; 2b versus control, tween 80, and 2a, 4 versus control): higher; potassium clearance, change in words ([4]; compared to the control (2b also versus 2a)): increased; urinary potassium excretion (UPE), change in words ([4]; compared to the control and 2a): increased; osmolar clearance, change in words ([4]; compared to the control group): greater; freewater clearance, change in words ([4]; compared to the control group, significant by PLS VIP and ANOVA): lower; UFR (urinary flow rate), change in words [4, 10]: increased; FES (fractional excretion of sodium), change in words ([4]; in comparison with tween 80): increased; Urinary Sodium Excretion [4]: 1.87 ± 0.39 µEq/min; sodium clearance, change in words ([4]; versus control, tween 80, and 2a): higher; serum ALP, change in words ([5]; compared to the control (CCl4 also versus PO)): greater; Alanine Aminotransferase [5]: 44.90 ± 2.46 U/L; Alkaline Phosphatase [5]: 192.21 ± 38.07 U/L; PAH t/m ratio [6]: 2.11 ± 0.20; renal LPO, change in words ([7]; compared to the control group (CCl4 also versus PO)): greater; Renal Lipoperoxidation [7]: 0.47 ± 0.03 URF/mg protein; Hepatic Lipoperoxidation [7]: 0.64 ± 0.10 URF/mg protein; Renal ROS [8]: 225.78 ± 56.22 nM de DCF/mg protein/h; Hepatic ROS [8]: 208.65 ± 30.24 nM de DCF/mg protein/h |
